From US10239876B2, “Triaza-spirodecanones as DDR1 inhibitors” (Hoffmann La-Roche Inc., priority 2015, dated 2019)

Target: intracellular domain of the DDR1 protein (Homo sapiens (Human), UniProt Q08345)
Test: In vitro binding competition assay for DDR1 (Eu-labeled anti-GST antibody / tracer FRET)
Details: recombinant GST-tagged protein, one hour incubation at room temperature
Text: This assay is based on the intracellular domain of the DDR1 protein which contains the kinase active site. The recombinant protein additionally carries a GST-tag that can be recognized by an Eu-labeled anti-GST antibody. […] Excitation energy absorbed by the Europium complex (350 nm flash light or pulsed laser) is transferred to a suitable fluorescent dye, if it is in close proximity. Compounds binding competitively with the tracer molecule will displace the bound tracer molecules and reduce the FRET signal in a dose dependent manner. Due to the long lifetime of the Eu excited state, the emission of the donor and the acceptor can be measured in time-gated mode such that most of the intrinsic fluorescence contributions have already decayed. […] This sensitive detection method enables protein concentrations below 20 nM.
Protein, tracer and labeled antibody were obtained from commercial sources. […] Dose response curves were generated from 16 compound dilutions in DMSO as solvent compound dilutions, a solution containing protein and labeled antibody, and a solution containing the tracer which is added in the last step. The fluorescence of donor and acceptor were then measured after one hour incubation at room temperature. Every assay run was quality-controlled with dose response curves for two reference compounds.

Chain of intracellular domain of the DDR1 protein (Q08345 439-913): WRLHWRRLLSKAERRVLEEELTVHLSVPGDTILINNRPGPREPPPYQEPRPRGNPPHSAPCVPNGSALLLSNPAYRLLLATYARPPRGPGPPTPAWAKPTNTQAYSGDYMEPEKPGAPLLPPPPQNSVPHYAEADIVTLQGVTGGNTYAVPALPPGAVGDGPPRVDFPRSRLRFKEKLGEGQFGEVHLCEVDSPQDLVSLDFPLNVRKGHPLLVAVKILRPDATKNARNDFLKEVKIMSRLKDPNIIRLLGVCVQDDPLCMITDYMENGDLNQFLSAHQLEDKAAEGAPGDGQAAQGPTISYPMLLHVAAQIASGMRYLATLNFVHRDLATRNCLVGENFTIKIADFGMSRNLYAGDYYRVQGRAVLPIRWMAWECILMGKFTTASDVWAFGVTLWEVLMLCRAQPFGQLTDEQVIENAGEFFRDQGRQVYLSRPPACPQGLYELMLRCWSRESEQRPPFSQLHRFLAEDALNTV

| IC50 | SMILES |
| --- | --- |
| 15.5 nM | O=C(CN1CN(c2ccccc2)C2(CCN(C(=O)c3ccc4[nH]ncc4c3)CC2)C1=O)NCC(F)(F)F [Example 7, 2-(8-(1H-Indazole-5-carbonyl)-4-oxo-1-phenyl-1,3,8-triazaspiro[4.5]decan-3-yl)-N-(2,2,2-trifluoroethyl)acetamide] |
| 19.4 nM | O=C(CN1CN(c2ccccc2)C2(CCN(C(=O)c3ccc4[nH]ncc4n3)CC2)C1=O)NCC(F)(F)F [Example 91, 2-(4-Oxo-1-phenyl-8-(1H-pyrazolo[4,3-b]pyridine-5-carbonyl)-1,3,8-triazaspiro[4.5]decan-3-yl)-N-(2,2,2-trifluoroethyl)acetamide] |
